The values below come from article PMC1831776, “Structure and characterization of a novel chicken biotin-binding protein A (BBP-A)” (BMC Structural Biology, 2007).

The subject of one data set is AVD. The data set can be described thus: Dissociation of BSO (fluorometric) versus BTN (radiobiotin) from AVD. The class given is binding, chicken. Particulars: 50°C; BSO fluorometric analysis, BTN radiobiotin assay.
For data set [1], the target named is T1, bBBP-A (Gallus gallus, UniProt E1BTQ4).
T1 sequence (E1BTQ4 22-146): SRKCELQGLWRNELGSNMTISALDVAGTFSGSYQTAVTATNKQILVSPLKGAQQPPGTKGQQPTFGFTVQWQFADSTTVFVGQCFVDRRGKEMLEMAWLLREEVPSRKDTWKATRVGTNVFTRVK
Kind of data set: Intrinsic fluorescence emission spectra, BBP-A. Particulars: 100 nM protein, 200 nM ligand, 25°C, excitation 280 nm. It counts as binding, chicken. How it is done:
(§1) The ligand-induced changes to the emission spectra of bBBP-A and wtAVD were studied, too (Figure 11). […] Compared to the ligand-free proteins, for each of the ligand-protein combinations the maximum in the emission spectra moved towards the shorter blue wavelengths.
(§2) In order to study the intrinsic fluorescence of the proteins, the emission spectra of bBBP-A and wtAVD in 50 mM NaPO4 buffer (pH 7.0) containing 650 mM NaCl were measured using a PerkinElmer LS55 spectrofluorometer and excitation at 280 nm (slit 2.5 nm). During the analysis, protein solutions (100 nM) were continuously mixed using an integrated magnetic stirrer and maintained at 25°C using a circulating water bath.

Data set [2] has as its target T1, bBBP-A. Kind of data set: DSC of BBP-A in the presence of ligand. The class given is binding, chicken. How it is done:
(§3) Differential scanning analysis was performed in 50 mM NaPO4 buffer (pH 7.0) containing 100 mM NaCl as previously described. The concentration of the analyzed proteins was between 0.2 and 0.6 mg/ml. In samples containing a ligand, the molar ligand concentration was three times as high as the protein subunit concentration. The samples were scanned from 25 to 130°C at a rate of 0.92°C/min.

Another data set deals with T2, wtAVD (Gallus gallus, UniProt P02701).
T2 construct: AVD isolated from chicken egg-white (wtAVD; Belovo S. A., Bastogne, Belgium); purchased Belovo S. A., Bastogne, Belgium; host or cells: chicken egg-white
T2 sequence (P02701 25-152): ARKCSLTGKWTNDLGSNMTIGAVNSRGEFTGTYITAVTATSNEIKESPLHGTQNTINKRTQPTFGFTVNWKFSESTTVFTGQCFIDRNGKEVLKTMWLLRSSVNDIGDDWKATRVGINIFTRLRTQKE
The data set can be described thus: Intrinsic fluorescence emission spectra, AVD. The class given is binding, chicken. Particulars: 100 nM protein, 200 nM ligand, 25°C, excitation 280 nm. How it is done: as §1, §2

The target of data set [3] is T3, chicken AVD (Gallus gallus, UniProt P02701).
T3 construct: AVD isolated from chicken egg-white (wtAVD; Belovo S. A., Bastogne, Belgium); purchased Belovo S. A., Bastogne, Belgium; host or cells: chicken egg-white
T3 sequence (P02701 25-152): as above
Kind of data set: DSC of AVD in the presence of ligand. It counts as binding. How it is done: as §3

Another data set addresses T4, BBP-A (Gallus gallus, UniProt E1BTQ4).
T4 sequence (E1BTQ4 22-146): T1 sequence (E1BTQ4 22-146)
Kind of data set: Biotin-binding affinity of BBP-A. On the set-up: species or system chicken. Here is the method:
Background The chicken genome contains a BBP-A gene showing similar characteristics to avidin family genes. In a previous study we reported that the BBP-A gene may encode a biotin-binding protein due to the high sequence similarity with chicken avidin, especially at regions encoding residues known to be located at the ligand-binding site of avidin.
(§4) The dissociation rate of [^3H]biotin from BBP-A was measured using a competitive dissociation assay (Figure 9; Table 2).

Data set [4] has as its target T1, bBBP-A. Kind of data set: Fluorescence spectroscopy protein-ligand dissociation analysis. The class given is binding, chicken. How it is done: Fluorescence spectroscopy was also used to measure the rate of protein-ligand dissociation. These experiments were made at 40°C in order to measure the dissociation events within an experimentally applicable timescale. […] The measured spectral properties of each protein-ligand complex (i.e. the emission intensity of the protein-ligand complex) were used to create a single-phase dissociation model, which was fitted to the data.

Data set [5] addresses T3, chicken AVD. Kind of data set: Isothermal titration calorimetry, AVD. It counts as binding. As to conditions: 25°C. Here is the method:
(§5) The energetics of biotin binding was determined with a VP-ITC (MicroCal™) Isothermal Titration Calorimeter. Measurements were performed at 25°C in degassed 50 mM NaPO4 buffer (pH 7.0) containing 100 mM NaCl. In order to calculate the enthalpies of binding (ΔH) for BBP-A and AVD, the cell used for measurements was filled with 30 μM protein solution. […] The data were analysed with Origin 7.0 software using the "One Set of Sites" method. The titration curve (heat change μcal/injection) resulting from the 15 injections was analysed by fitting the data to a nonlinear least square curve.
Background: Isothermal titration calorimetry measures the heat released or taken up as one component is titrated into another.

The target of data set [6] is T1, bBBP-A. Kind of data set: Isothermal titration calorimetry, BBP-A. It counts as binding, chicken. As to conditions: for Enthalpy (ITC), BBP-A: 25°C. How it is done:
as §5

The target in data set [7] is T1, bBBP-A. Kind of data set: [3H]-biotin competitive dissociation analysis (ligand from BBP-A). The class given is binding, chicken. Particulars: 40°C, [3H]-biotin dissociation analysis, excess of BTN as competitive ligand. How it is done:
as §4
The dissociation rate of [^3H]biotin (Amersham) was measured at various temperatures with a competition assay as described previously. Measurements were carried out in 50 mM NaPO4 buffer containing 100 mM NaCl.

Details of data set [8]: method as in PMID 15324300. As to conditions: ref [30], cited from earlier work; for Tr +BTN: with BTN; for Tr -BTN: without BTN.
The nature of data set [9]: Dissociation of fluorescent biotin conjugate ArcDia BF560-biotin from the proteins. It counts as binding. Particulars: 25°C. Here is the method: as §4
The dissociation rate of the fluorescent biotin conjugate ArcDia™ BF560-biotin (ArcDia Ltd., Turku, Finland) was measured as reported previously. The measurements were made at 25°C in 50 mM NaPO4 buffer (pH 7.0) containing 650 mM NaCl using a PerkinElmer LS55 luminometer.

Data set [10] is described as follows: Differential scanning calorimetry of the proteins. The class given is physicochemical, chicken. Particulars: with BTN. How it is done: as §3
In general terms: DSC measures the heat that a sample takes up or gives off during a temperature scan.

For data set [11] the following is noted: without BTN; ref [33]; cited from earlier work.
The target in data set [12] is chicken biotin-binding protein A expressed in bacteria (bBBP-A) (chicken). Kind of data set: SEC; gel filtration, Superdex 200 10/300 GL, 50 mM NaPO4, 650 mM NaCl, pH 7.0; samples without BTN and after 15 min with 0.22 mM BTN; apparent masses from standard proteins.
Data set [13] has the same target. Kind of data set: SDS-PAGE-based thermostability assay; samples saturated with BTN; acetylated in vitro, thermal treatment 20 min in sample buffer with SDS and 2-mercaptoethanol, Coomassie staining.
The target is the same in data set [14]. The data set can be described thus: crystal structure; bBBP-A co-crystallised with BTN; two crystals, BBP-A - BTN (2.1 A, I4(1)22) and BBP-A - BSO (1.75 A, P2(1)2(1)2).
In data set [15] the target is chicken biotin-binding protein A expressed in insect cells (iBBP-A) (chicken). The data set can be described thus: SEC; gel filtration, Superdex 200 10/300 GL, 50 mM NaPO4, 650 mM NaCl, pH 7.0; samples without BTN and after 15 min with 0.22 mM BTN; apparent masses from standard proteins.
Data set [16] has the same target. The data set can be described thus: SDS-PAGE-based thermostability assay; samples saturated with BTN; acetylated in vitro, thermal treatment 20 min in sample buffer with SDS and 2-mercaptoethanol, Coomassie staining.
[17] abbreviates: 40°C, fluorescence spectroscopic analysis, excess of BTN as competitive ligand.

pKd: −log10 of the molar value. Marks after values point to notes of the source that are not given here.

In the case of `O=C(O)CCCC[C@H]1[C@H]2NC(=O)N[C@H]2C[S+]1[O-]` (stereo partly drawn) [BSO, D-biotin D-sulfoxide], the “dissociation rate from AVD, times higher in comparison to BTN” value in the data set with AVD is “more than 20 times”. Further, the “ligand-induced change of emission intensity of BBP-A” value (from here on “ligand-induced change … of BBP-A”) on bBBP-A [1] is on record as “enhanced the emission intensity”. Besides, the “Tm (DSC), BBP-A” value at bBBP-A [2] came out at 100.4 ± 0.2 °C. In addition, at wtAVD, the “ligand-induced change of emission intensity of AVD” value (“ligand-induced change … of AVD” for short) was “decreased the emission intensity”. On chicken AVD [3], the “Tm (DSC), AVD” value was 116.9 ± 0.2 °C. For the same compound, the “affinity of BBP-A for BSO compared with BTN” value at BBP-A is “even higher than the affinity for BTN”. Further, the “kdiss from BBP-A” value on bBBP-A [4] (setting [17]) was 1.3^a × 10^-4 s^-1. Further, the “Enthalpy (ITC), AVD” value on chicken AVD [5] is listed as -29.3 ± 0.1 kcal/mol. In addition, at bBBP-A [6], the “Enthalpy (ITC), BBP-A” value is -25.9 ± 0.1 kcal/mol.
With `O=C(O)CCCC[C@@H]1SC[C@@H]2NC(=O)N[C@@H]21` [BTN, D-biotin], the “ligand-induced change … of BBP-A” value at bBBP-A [1] was “enhanced the emission intensity”. For the same compound, the “kdiss from BBP-A” value at bBBP-A [7] is listed as 5.4^b (4.4^c) × 10^-4 s^-1. Besides, the “Tm (DSC), BBP-A” value at bBBP-A [2] was found to be 103.4 ± 0.1 °C. For the same compound, at wtAVD, the “ligand-induced change … of AVD” value is “decreased the emission intensity”. At chicken AVD [3], the “Tm (DSC), AVD” value stood at 117.0 ± 0.7 °C. Also, on BBP-A, the “affinity of BBP-A for biotin, times lower than that of chicken avidin” value is reported as “about 50 times”. In addition, the “kdiss from BBP-A” value on bBBP-A [4] is 5.4^b (4.4^c) × 10^-4 s^-1. Besides, the “Enthalpy (ITC), AVD” value at chicken AVD [5] is -22.6 ± 0.1 kcal/mol. Further, on bBBP-A [6], the pKd was over 9.00 and the “Enthalpy (ITC), BBP-A” value is -20.5 ± 0.1 kcal/mol.
As for `O=C(O)CCCC[C@H]1[C@H]2NC(=O)N[C@H]2CS1(=O)=O` [D-biotin sulfone], the “ligand-induced change … of BBP-A” value on bBBP-A [1] is “enhanced the emission intensity”. The “Tm (DSC), BBP-A” value on bBBP-A [2] stood at 101.4 ± 0.2 °C. The “ligand-induced change … of AVD” value at wtAVD was “increased the emission intensity”. Besides, on chicken AVD [3], the “Tm (DSC), AVD” value was 117.0 ± 0.0 °C. For the same compound, the “kdiss from BBP-A” value on bBBP-A [4] (setting [17]) is listed as 3.3^a × 10^-4 s^-1. The “Enthalpy (ITC), AVD” value on chicken AVD [5] is on record as -25.1 ± 0.1 kcal/mol. Further, the “Enthalpy (ITC), BBP-A” value on bBBP-A [6] is -21.4 ± 0.1 kcal/mol.
For the compound “AVD: AVD isolated from chicken egg-white (Belovo S. A.), control protein”, in [8], the “Tr +BTN” value was 90^b °C and the “Tr -BTN” value is 60^b °C. In [9], the “kdiss, dissociation of fluorescent BTN” value was 2.0 10^-5 s^-1 and the “Release 1 h, dissociation of fluorescent BTN” value was 10%. In data set [10], the “Tm +BTN (DSC)” value is 117.0 °C. Further, the “Tm -BTN (DSC)” value in [11] was 83.5^c °C.
“bAVD: AVD produced in E. coli, control protein”: in [8], the “Tr +BTN” value is 90^b °C and the “Tr -BTN” value is 60^b °C. Also, in data set [9], the “kdiss, dissociation of fluorescent BTN” value is 1.1 10^-5 s^-1 and the “Release 1 h, dissociation of fluorescent BTN” value came to 5%.
For the compound “chicken biotin-binding protein A expressed in bacteria (bBBP-A) (natural protein)”, the stoichiometry N in data set [12], in data set [13] and in data set [14] was 4 each time.
“chicken biotin-binding protein A expressed in insect cells (iBBP-A) (natural protein)”: the stoichiometry N in data set [15] and in data set [16] was 4 throughout.

What is called pKd is the negative decadic logarithm of the Kd, by convention in mol/L. Low readings indicate a high Kd, high ones a low Kd. For orientation: stoichiometry N means a count of units in the complex or per binding partner.
